Data: PubChem BioAssay AID1996
In brackets after ≈: the same amount, converted by molar mass.

settings: buffer; pH 7.4; 200.0 µM

SMILES	solubility kinetic
CC(C)CNS(=O)(=O)c1ccc(CCC(=O)NC2CCCCC2)cc1	10.5 µg/mL (≈ 28.6 µM)
O=C(c1cccc(Cl)c1)N1CCN(c2ncccn2)CC1	> 45.4 µg/mL
COc1ccc(NC(=O)NC(c2ccccc2)c2ccccc2)c(OC)c1	< 0.4 µg/mL
CCOC(=O)CCCNC(=O)CCNC(=O)c1ccc(OCCC(C)C)cc1	> 58.9 µg/mL
CCOC(=O)C1(CC2CC2)CCN(Cc2ccc(C(=O)OC)cc2)CC1	42.8 µg/mL (≈ 119 µM)
COc1ccc(/C=C(\C#N)C(=O)OC2CCOC2=O)cc1 (centres undefined)	> 43.1 µg/mL
O=C(Nc1ccc(Nc2ccccc2)cc1)c1ccc(Cl)cc1	0.4 µg/mL (≈ 1.24 µM)
Cc1nc(N)ncc1C(=O)Nc1ccccc1	19 µg/mL (≈ 83.2 µM)
CCCCNC(=O)c1cc2c(=O)n(CC)c3ccccc3c2s1	< 0.4 µg/mL
O=C(NCc1cc2ccccc2[nH]1)c1ccccc1F	> 40.2 µg/mL
COCCn1cnnc1SCC(=O)Nc1cc(C)on1	> 44.6 µg/mL
Cc1cccc(C)c1NC(=S)N(CCN(C)C)C(C)c1ccccn1 (centres undefined)	> 53.5 µg/mL
Cc1ccc(-c2csc(-c3cc(C)on3)n2)cc1	< 0.3 µg/mL
C=CCc1cccc2cc(C(=O)NCCOC)c(=O)oc12	41.5 µg/mL (≈ 144 µM)
Cn1ncc([N+](=O)[O-])c1C(=O)Nc1ccccc1C(=O)O	> 43.5 µg/mL
Cn1c(=O)c2c(O)c(Cc3ccccc3)c(=O)n(C)c2n(C)c1=O	36 µg/mL (≈ 110 µM)
CCOC(=O)Cc1csc(NC(=O)CSc2nccn2C)n1	> 51.1 µg/mL
CCCCn1c(O)c(/C=C2/C=CC=N2)c(=O)[nH]c1=O	5.1 µg/mL (≈ 19.5 µM)
CCC(C)(C)NC(=O)/C=C/c1ccccc1[N+](=O)[O-]	31.4 µg/mL (≈ 120 µM)
O=C(NCCCn1ccnc1)C(=O)Nc1ccccc1	39.5 µg/mL (≈ 145 µM)
O=C(NC1CCCCCCC1)c1cccs1	22.5 µg/mL (≈ 94.8 µM)
CCOC(=O)CC1C(=O)NCCN1C1CCCC1 (centres undefined)	> 38.1 µg/mL
O=C(c1ccc(F)cc1)C1CCN(C(=O)c2c(F)cccc2F)CC1	> 52.1 µg/mL
Cc1cccc(C(=O)OCC(=O)NCCN2C(=O)CSC2=O)c1[N+](=O)[O-]	> 57.2 µg/mL

SMILES	solubility kinetic
O=C(/C=C/c1cccnc1)c1ccc(F)c(F)c1	27.8 µg/mL (≈ 113 µM)
Cc1nn(CC(=O)N2CCN(C(=O)c3ccco3)CC2)c(C)c1[N+](=O)[O-]	> 54.2 µg/mL
Cc1noc(/C=C/c2cccnc2)c1[N+](=O)[O-]	33.7 µg/mL (≈ 146 µM)
COc1ccc2cc(S(=O)(=O)Nc3ccccn3)ccc2c1	10 µg/mL (≈ 31.8 µM)
O=C(CN1C(=O)NC2(CCCCCC2)C1=O)Nc1ccccc1[N+](=O)[O-]	7.3 µg/mL (≈ 20.3 µM)
Cc1ccc(OCC(=O)Oc2ccccc2[N+](=O)[O-])cc1	17.4 µg/mL (≈ 60.6 µM)
Cc1c(C(=O)O)sc2c1c(=O)n(Cc1ccccc1)c(=O)n2C	> 49.6 µg/mL
Cc1c(C(=O)CN2CCCC(C)(C)C2)c2ccccc2n1C	> 44.8 µg/mL
Cc1cc(C)cc(N2C(=O)CCN(Cc3ccccc3)C2=O)c1	38 µg/mL (≈ 123 µM)
Cc1ccc(N2C(=O)[C@@H]3C(c4cccnc4)=NO[C@@H]3C2=O)c(C)c1	> 48.2 µg/mL
Cc1ccc2nsnc2c1S(=O)(=O)N1CCN(C)CC1	45.5 µg/mL (≈ 146 µM)
CCc1ccc(C(=O)Nc2ccc3nc(C)ccc3c2)cc1	< 0.3 µg/mL
COc1ccc(C(=O)N2CCC(C(=O)NC3CC3)CC2)cc1	> 45.4 µg/mL
O=C(NCCN1CCOCC1)C1CC(=O)N(c2ccc(Cl)cc2)C1 (centres undefined)	> 52.8 µg/mL
O=C(CSc1nnc2ccccn12)NC(=O)c1ccccc1Cl	> 52 µg/mL
N#CCSc1ccc(S(=O)(=O)N2CCOCC2)cn1	> 44.9 µg/mL
Cc1sc2nc[nH]c(=O)c2c1-c1ccc(F)cc1	4.8 µg/mL (≈ 18.4 µM)
Cc1ccc(-c2cc(C(=O)Nc3cc(C)ccc3O)no2)cc1	< 0.3 µg/mL
O=C(Nc1ccc2nccnc2c1)c1ccco1	> 35.9 µg/mL
Cc1ccc(C(=O)Nc2ccncc2)c(Cl)c1	> 37 µg/mL
COc1cc2nc(Cl)nc(NCCO)c2cc1OC	24.7 µg/mL (≈ 87.1 µM)
CC1(C)CC(NC(=O)c2cc(S(=O)(=O)N3CCOCC3)ccc2Cl)CC(C)(C)N1.Cl	> 72.1 µg/mL
CCC(C(=O)Nc1ccc(C)cc1)c1ccccc1 (centres undefined)	< 0.5 µg/mL
Cc1ccc(S(C)(=O)=NC(=O)c2cc(C)on2)cc1 (centres undefined)	41.5 µg/mL (≈ 149 µM)

SMILES	solubility kinetic
Cc1ccc(Cn2cc(C=O)c3ccccc32)cc1	11.7 µg/mL (≈ 46.9 µM)
Cc1ccc(N2CC(C(=O)NC3CC3)CC2=O)cc1Cl (centres undefined)	> 43.9 µg/mL
O=C(CNCc1ccc(F)cc1)Nc1ccccc1[N+](=O)[O-]	32.7 µg/mL (≈ 108 µM)
O=C(O)c1cc(-c2cccc3ccccc23)nc2ccccc12	> 44.9 µg/mL
COc1ccc(C(=O)NCCONC(=O)c2ccc(OC)cc2)cc1	50.6 µg/mL (≈ 147 µM)
O=C1CN=C(c2ccccc2)c2c(sc3c2CCCC3)N1	36.3 µg/mL (≈ 122 µM)
O=S1(=O)CCC(NC(=S)Nc2ccccc2)C1 (centres undefined)	> 40.6 µg/mL
C/C(N)=C(/C#N)C(=O)COC(=O)C1=NN(c2ccccc2)C(=O)CC1	> 51.1 µg/mL
CC1CCCN(C(=O)COC(=O)Cc2c(F)cccc2Cl)C1 (centres undefined)	40.9 µg/mL (≈ 125 µM)
CSc1nsc(SC)c1C(=O)Nc1ccc(C(C)(C)C)cc1	< 0.4 µg/mL
O=C(CN1CCCC1)Nc1cccc(Cl)c1Cl	28.4 µg/mL (≈ 104 µM)
CC(OC(=O)CNC(=O)C1CCCCC1)C(=O)NCc1ccccc1 (centres undefined)	> 52 µg/mL
CCC1CCCCN1C(=O)COC(=O)c1cccs1 (centres undefined)	> 42.2 µg/mL
O=C(c1c[nH]c2ccccc12)C(F)(F)F	20.2 µg/mL (≈ 94.8 µM)
COc1cc(N)c(Cl)cc1C(=O)OCC(=O)NCC1CCCCC1	4.8 µg/mL (≈ 13.5 µM)
CCOC(=O)C1(Cc2cccc(F)c2)CCN(CC2CC2)CC1	> 47.9 µg/mL
Cc1cc2ccccn2c1C(=O)c1ccc(C#N)cc1	1.9 µg/mL (≈ 7.3 µM)
C=CCN=C1S/C(=C\c2ccc(N(C)C)cc2)C(=O)N1CC=C	5.5 µg/mL (≈ 16.8 µM)
CCOC(=O)C1=C(N)Oc2cc(O)ccc2C1c1ccc(C)cc1 (centres undefined)	< 0.7 µg/mL
Cc1ccc(-c2nc(C#N)c(N3CCC(C(N)=O)CC3)o2)cc1	1.6 µg/mL (≈ 5.16 µM)
O=C(Nc1nc2ccccc2[nH]1)NC1CCCCC1	1.6 µg/mL (≈ 6.19 µM)
CCCN1CCN(CCCNC(=S)Nc2ccc(F)cc2)CC1	49 µg/mL (≈ 145 µM)
CC1(C)C[C@@H]2C[C@@](C)(CN2C(=O)c2ccccc2)C1	36.5 µg/mL (≈ 142 µM)
O=C(Cc1ccsc1)Nc1ccc(Cl)cc1Cl	3.8 µg/mL (≈ 13.3 µM)

SMILES	solubility kinetic
CNC(=O)CSc1nc(-c2ccccc2)c(-c2ccccc2)o1	3.3 µg/mL (≈ 10.2 µM)
CCOC(=O)CNC(=O)c1ccc(Cl)s1	> 37.2 µg/mL
CC(C)(CO)Nc1ncnc2onc(-c3ccc(F)cc3)c12	> 45.3 µg/mL
O=C(COC(=O)[C@@H]1CC(O)CN1S(=O)(=O)c1ccc(Cl)c(Cl)c1)NC(=O)NCc1ccccc1 (some centres undefined)	66.7 µg/mL (≈ 126 µM)
CCCCc1cc(C)c(S(=O)(=O)c2ccccc2C)c(=O)[nH]1	3.8 µg/mL (≈ 11.9 µM)
COc1ccc(CNC(=O)COC(=O)[C@H](Cc2ccccc2)NC(=O)c2cccs2)cc1	51 µg/mL (≈ 113 µM)
O=C(O)Cn1cc(CN2CCOCC2)c2ccccc21	30 µg/mL (≈ 109 µM)
O=C(COC(=O)c1ccc2ccccc2n1)NC1CCCCC1	8.5 µg/mL (≈ 27.2 µM)
CSc1ncc(Cl)c(C(=O)Nc2ccccc2C)n1	1.3 µg/mL (≈ 4.43 µM)
O=[N+]([O-])c1cccc(-c2nnc(SCc3cccnc3)o2)c1	> 47.1 µg/mL
Cc1nc(-c2cc(C#N)c(=O)[nH]c2C)cs1	> 34.7 µg/mL
COc1ccc(Cl)cc1N=Cc1c(O)c2ccccc2oc1=O	< 0.7 µg/mL
Cc1cccc(N2CCN(S(=O)(=O)c3ccc(Cl)nc3)CC2C)c1 (centres undefined)	3.6 µg/mL (≈ 9.84 µM)
CCOc1cc(C(=O)NC2CCCCCCC2)cc(OCC)c1OCC	2.3 µg/mL (≈ 6.33 µM)
CSc1nc2ccccc2c(=O)n1C1CCCCC1	1 µg/mL (≈ 3.64 µM)
CSc1ccc(/C=C/C(=O)N2CCN(c3ccccn3)CC2)cc1	2.3 µg/mL (≈ 6.78 µM)
CN1CCN(CCn2c(=S)[nH]c3ccccc3c2=O)CC1	> 45.7 µg/mL
CC1=NN(c2nc3ccccc3[nH]2)C(=O)/C1=C/N(C)C	> 40.4 µg/mL
Cc1ccc2nc(N3CC(C)OC(C)C3)nc(-c3ccccc3)c2c1 (centres undefined)	2.2 µg/mL (≈ 6.6 µM)
CCCNc1nc(Cl)nc(NCc2cccnc2)n1	33.5 µg/mL (≈ 120 µM)
COc1ccc(CN2CCOCCOCCOCCOCC2)cc1	> 50.9 µg/mL
O=C(NCc1ccc(F)cc1)c1cc(C(=O)C2CC2)c[nH]1	4.2 µg/mL (≈ 14.7 µM)
N#Cc1ccc(C(=O)OCC(=O)NC2CCCC2)cc1	39 µg/mL (≈ 143 µM)
N#Cc1ccccc1NC(=S)Nc1ccc(F)cc1	35.1 µg/mL (≈ 129 µM)

SMILES	solubility kinetic
Cc1ccc(C2C(C(=O)c3ccco3)=C(O)C(=O)N2c2ncccn2)cc1 (centres undefined)	> 54.2 µg/mL
CN1C(=O)c2cccc3c(S(=O)(=O)NCCc4ccccc4)ccc1c23	< 0.4 µg/mL
Cc1nc(-c2ccccc2Cl)sc1C(=O)/C=C/N(C)C	10.8 µg/mL (≈ 35.2 µM)
COCCNC(=O)/C(C#N)=C/c1cc(Br)c(O)c(OC)c1	45 µg/mL (≈ 127 µM)
CN1CCN(c2nc3c(c(=O)[nH]2)CCC3)CC1	> 35.1 µg/mL
Nc1nc2nc(-c3ccccc3)cc(C(F)(F)F)c2s1	4.1 µg/mL (≈ 13.9 µM)
Cn1nc(C(F)(F)F)c2cc(C(=O)N3CCOCC3)sc21	> 47.9 µg/mL
Nc1cc(S(=O)(=O)N2CCCCC2)ccc1Oc1ccccc1	10.8 µg/mL (≈ 32.5 µM)
CCOC(=O)c1c(C)[nH]c(C)c1S(=O)(=O)N1CCOCC1	> 47.5 µg/mL
CSc1nc(Nc2ccc(Cl)cc2)c(C#N)c(=O)[nH]1	7.8 µg/mL (≈ 26.6 µM)
Cc1ncc([N+](=O)[O-])n1CCO	> 25.7 µg/mL
O=C(NN=C1CCCCC1)c1ccccc1-n1cccc1	> 42.2 µg/mL
CCN1C(=O)C(=O)N(CC(=O)Nc2cc(C)ccc2C)C1=O	> 45.5 µg/mL
CCC(C)[C@H](NC(=O)N1CCC(Cc2ccccc2)CC1)C(=O)O (some centres undefined)	> 49.9 µg/mL
Cc1cc(C)c(NC(=S)NCCO)c(C)c1	> 35.8 µg/mL
COc1ccc(C(=O)Nc2ccccc2NC(=O)c2ccc(OC)cc2)cc1	< 0.4 µg/mL
CC(=O)c1cccc(NC(=O)c2cc(=O)[nH]c3ccc(S(=O)(=O)N4CCOCC4)cc23)c1	8.5 µg/mL (≈ 18.7 µM)
CCSc1nc2sc3c(c2c(=O)n1-c1ccccc1C)CCN(C)C3	53.7 µg/mL (≈ 145 µM)
CCN(CC)C(=O)N1c2ccccc2Sc2ccccc21	2.8 µg/mL (≈ 9.38 µM)
O=C(O)CCN1CCN(S(=O)(=O)c2ccc3ccccc3c2)CC1	44.5 µg/mL (≈ 128 µM)
COc1ccccc1CN(C)CC(=O)Nc1cccc2ccccc12	18.9 µg/mL (≈ 56.5 µM)
CCC(Sc1ncccc1Nc1ccccn1)C(=O)O (centres undefined)	> 43.4 µg/mL
COc1ccc(OC)c(S(=O)(=O)NCCCc2ccccc2)c1	27.4 µg/mL (≈ 81.7 µM)
